In series [1] the test system is SCC-61, G48, MD3-MB-231 and PC3 cancer cell lines. The series can be described thus: MTT assay, potency versus ascorbate across patient-derived cancer cell lines. The class given is cell-based, human. To be noted: Example 13; SCC-61, PC3, and MD3-MB-231 cells. The method, then:
The cells were seeded at density 5×10^3 cells/well. After 24 h pre-incubation period, cells were treated with 0.01 mM to 2.0 mM of freshly prepared KS1 and KS2 along with ascorbate (n=3) for 48 h. 0.2% of DMSO served as vehicle control. After 48 h, the solutions were removed from all plates and MTT assays performed following the published protocols. IC50 values are presented as mean±SD from at least three independent experiments.
There is growing evidence for a therapeutic role of ascorbate against several cancers (Creagan et al., Failure of High-Dose Vitamin C (Ascorbic Acid) Therapy to Benefit Patients with Advanced Cancer. New England Journal of Medicine 1979, 301 (13), 687-690; Chen et al., Pharmacologic ascorbic acid concentrations selectively kill cancer cells: action as a pro-drug to deliver hydrogen peroxide to tissues. Proceedings of the National Academy of Sciences of the United States of America 2005, 102 (38), 13604-13609; Prasad et al., High Doses of Multiple Antioxidant Vitamins: Essential Ingredients in Improving the Efficacy of Standard Cancer Therapy. Journal of the American College of Nutrition 1999, 18 (1), 13-25). […]
For orientation: Tetrazolium assays rely on reduction of a dye to a coloured formazan, in cell work by metabolically active cells.

The subject of the next series is PC3 cells. Description: [18F]KS1 in vitro cell uptake in PC3 cells, normoxic and hypoxic. The class given is cell-based, human. The method, then:
ROS efficacy was evaluated in two tumor cell lines: (1)SCC-61 and rSCC-61 cells (HNSCC) (FIG. 5), and (2) PC3 (PCa) cell lines under normoxic and hypoxic conditions (FIG. 6) following previously published protocols by our group (Sai et al., Peptide-based PET imaging of the tumor restricted IL13RA2 biomarker. Oncotarget 2017, 5; Yamamoto et al., Correlation of 18F-FLT and 18F-FDG uptake on PET with Ki-67 immunohistochemistry in non-small cell lung cancer. European Journal of Nuclear Medicine and Molecular Imaging 2007, 34 (10), 1610-1616; Solingapuram Sai et al., Radiolabeling and initial biological evaluation of [18F]KBM-1 for imaging RAR-α receptors in neuroblastoma. Bioorganic & Medicinal Chemistry Letters 2017, 27 (6), 1425-1427). Several ROS blockers including fresh solution of non-radioactive compounds KS1, KS2, SOD (10 μM) in the cell media were added to the seeded tumor cells 1.0 h prior to radiotracer addition (n=6 per blocker). All the cells were then treated with [^18F]KS1 (2.0 μCi/well, UV mass=0.4 μg/mL and S.A=3100 mCi/μmol) and incubated for 60 min (n=6) at 37° C. All the cells (both with and without blockers) were washed and lysed with lysate buffer solution. Lysate samples from each well were collected for gamma counting.
Similarly, in another experiment, human PCa-PC3 cells were cultured under normoxic (˜21% O2) or hypoxic (1% O2) conditions for 48 h. Thereafter, similar to HNSCC cells (detailed above) all assay steps including blocker treatment, radiotracer addition, incubations, washings and lysis were carried out under normoxic or hypoxic conditions. All hypoxia experiments were performed in a hypoxia chamber (Biospherix X3 Xvivo system). Plates without radioactivity were used as controls. […] The counts per minute values of each well were normalized to the amount of radioactivity added to each well and was expressed as percent uptake relative to the control condition. The data were expressed as % ID/mg of protein present in each well.
To further test the specificity of [^18F]KS1 for ROS, radioactive uptake in PCa cells was tested under hypoxic conditions, as several studies have shown that hypoxic conditions promote ROS generation and oxidative stress (Kumar et al., Oxidative Stress Is Inherent in Prostate Cancer Cells and Is Required for Aggressive Phenotype. Cancer Research. 2008; 68:1777-85; Pinthus et al., Androgen Induces Adaptation to Oxidative Stress in Prostate Cancer: Implications for Treatment with Radiation Therapy. Neoplasia (New York, NY). 2007; 9:68-80; Cervellati et al., Hypoxia induces cell damage via oxidative stress in retinal epithelial cells. […] A reported hypoxia model of PCa cells was tested in which the uptake of [^18F]KS1 was evaluated in PC3 cells cultured under hypoxic conditions versus normoxic conditions.

A short description of series [2]: Ex vivo biodistribution in normal ICR mice. To be noted: for blood uptake / kidney uptake / liver uptake: in %ID/g (unit assumed).

Turning to `O=C1O/C(=C/CCl)C(O)=C1OCc1ccc(OCCF)cc1` [KS1, (E)-5-(2-chloroethylidene)-3-(4-(2-fluoroethoxy)benzyloxy)-4-hydroxyfuran-2(5H)-one], the “selectivity (potency) versus ascorbate” value in series [1] was 1.6 to 2.5 fold.
Turning to `O=C1O/C(=C/CCl)C(O)=C1OCc1ccc(OCC[18F])cc1` [[^18F]KS1], in the series with PC3 cells (PC3 cells), the “uptake blocked by SOD” value is on record as roughly 48%, the “uptake blocked by nonradioactive KS1” value is roughly 61% and the “uptake increase with doxorubicin” value is roughly 15%. Further, in the series with PC3 cells (hypoxic 1% O2 vs normoxic ~21% O2, 60 min), the “radioactive uptake in PC3 under hypoxic conditions versus normoxic conditions” value is roughly 2 fold. In series [2] (5 min post injection), this molecule gave a blood uptake of 1.361±0.71, a kidney uptake of 14.793±1.33 and a liver uptake of 9.72±2.55. In series [2] (120 min post injection), the blood uptake is given as 0.31±0.071, the kidney uptake turned out to be 3.23±1.30 and the liver uptake stood at 2.124±1.12. Besides, in series [2] (normal ICR mice), the bone uptake entry was “No significant bone uptake” and the brain uptake entry is “Poor brain uptake”.

Values taken from patent publication US20240261443A1, “COMPOUNDS AND COMPOSITIONS USEFUL AS RADIOTRACERS FOR IMAGING OF REACTIVE OXIDATIVE SPECIES” (Wake Forest University Health Sciences, priority 2019, published 2024).
